Tests used:
[1] = UV-vis titration (ΔA550) with glutaric acid in CHCl3; assay type: binding
Protocol: FIG. 3 discloses the change in the visible absorption spectrum of Cu(1)2^+ BF4^- upon addition of glutaric acid in CHCl3 [Cu(1)2^+ BF4^- ]=0.106 mM, [glutaric acid]=0-0.5 mM.
FIG. 4 discloses the change in the visible absorption spectrum of [Cu(L)2^+ BF4^- ] upon addition of glutaric acid in CHCl3. [Cu(L)2^+ BF4^- ]=0-0.125 mM [glutaric acid]=0-0.40 mM.
(§1) Complexation of Receptor 1 with Dicarboxylic Acids. Receptor 1 is a bis(acylaminopyridine) receptor and as such was expected to form strong bidentate interactions with dicarboxylic acids in chloroform. This was indeed the case, as 1 was found by NMR to bind glutaric acid with an association constant of 3.6×10^4 M^-1. Large changes in proton chemical shifts of 1 indicate that the dicarboxylic acid is hydrogen bonded simultaneously to the two acylaminopyridines moieties. […] The contribution of the phenanthroline to binding is uncertain, but it appears to play only a minor role; no protons on the phenanthroline ring shifted more than 0.014 ppm during the course of the titration. […] The stoichiometry of the complexes was 2:1 as determined by the concentration of dicarboxylic acid at which saturation of the receptor was found and independently determined by a Job's plot. A Job's plot is used to measure stoichiometry based on continuous variations of constant concentrations. Binding was most conveniently followed by UV-vis spectroscopy (ΔA550) and was checked against NMR results for pimelic acid and glutaric acid. The binding data was analyzed by assuming that two independent and equal bidentate binding sites are interacting with the substrate. In this way a single association constant is obtained that represents the strength of binding of one of the receptor binding sites with one substrate. […] An exception was N-Cbz-glutamic acid, which is understandable because there are several diastereotopic complexes present (vide infra), each with a different Ka.
(§2) From comparison of FIG. 3 with FIG. 4 which is a change in the visible absorption spectrum of Cu(L)2^+ BF4^- upon addition of glutaric acid, it is clear that the bis-dicarboxylic acid receptor, Cu(1)2^+ BF4^-, is more chromogenic than a mono-dicarboxylic acid receptor, Cu(L)2^+ BF4^-. [drawing 1] The relative change in A550 is 3-4 times greater for Cu(1)2^+ BF4^- than for Cu(L)2^+ BF4^-. A summary of the spectral changes that occur upon complex formation are present in Table 2 below. […]
The origin of the chromogenic effect is definitely a direct result of the bidentate binding of dicarboxylic acids to the receptors. Addition of large excesses of monocarboxylic acids (acetic or trifluoroacetic) to a CHCl3 solution of either Cu(I)-based receptor leads to only minor changes in the absorbance spectrum. […]

[2] = UV-vis titration (ΔA550) with 1,3-phenylenediacetic acid in CHCl3; assay type: binding
Text: as §1
(§3) Also reported in Table 2 are the λmax and the relative change in the absorptivity at 550 nm for each substrate/receptor combination. The changes in the absorption spectra are definitely substrate dependent. For example, complexation of pimelic acid results in a less pronounced increase in the shoulder near the red edge and a smaller blue shift in λmax (for Cu(1)2^+ BF4^-,λmax =445 nm) than complexation of the 5-carbon acids, glutaric and N-Cbz-glutamic. […]

air stability = assay type: physicochemical; conditions: Cu(I) complex
[3] = NMR titration with pimelic acid; assay type: binding
Text: (§4) Complexation of Receptor 1 with Dicarboxylic Acids. Receptor 1 is a bis(acylaminopyridine) receptor and as such was expected to form strong bidentate interactions with dicarboxylic acids in chloroform. This was indeed the case, as 1 was found by NMR to bind glutaric acid with an association constant of 3.6×10^4 M^-1. Large changes in proton chemical shifts of 1 indicate that the dicarboxylic acid is hydrogen bonded simultaneously to the two acylaminopyridines moieties. […] The contribution of the phenanthroline to binding is uncertain, but it appears to play only a minor role; no protons on the phenanthroline ring shifted more than 0.014 ppm during the course of the titration. […] The stoichiometry of the complexes was 2:1 as determined by the concentration of dicarboxylic acid at which saturation of the receptor was found and independently determined by a Job's plot. A Job's plot is used to measure stoichiometry based on continuous variations of constant concentrations. Binding was most conveniently followed by UV-vis spectroscopy (ΔA550) and was checked against NMR results for pimelic acid and glutaric acid. The binding data was analyzed by assuming that two independent and equal bidentate binding sites are interacting with the substrate. In this way a single association constant is obtained that represents the strength of binding of one of the receptor binding sites with one substrate. […]

[4] = complexation with dicarboxylic acids in CHCl3 (UV-vis, NMR, Job's plot); assay type: binding
Text: as §1, §2

[5] = UV-vis titration (ΔA550) with pimelic acid in CHCl3; assay type: binding
Text: as §1, §3

[6] = UV-vis titration (ΔA550) with N-Cbz-glutamic acid in CHCl3; assay type: binding
Text: as §4, with “Binding was most conveniently followed by UV-vis spectroscopy (ΔA550) and was checked against NMR results for pimelic acid and glutaric acid.” left out, “substrate.” for “substrate. In this way a single association constant is obtained that represents the strength of binding of one of the receptor binding sites with one substrate.”
In the binding mode proposed in FIG. 5, the structure of the 2:1 complex of glutaric acid with Cu(1)2^+ BF4^- is chiral, similar to a double helix. […] This complicates the analysis of binding because six possibly different binding constants need to be evaluated. […]

[7] = NMR titration with glutaric acid; assay type: binding
Text: as §4

[8] = CHCl3, UV-vis ΔA550, per binding site

Row | SMILES | Binding Constant (Ka) UV-vis ([1]; glutaric acid, CHCl3, UV-vis ΔA550, per binding site) [M⁻¹] | relative change in A550, compared with Cu(L)2^+ BF4^- ([1]; glutaric acid, FIG. 3 vs FIG. 4) | % Increase ( = 550 nm) ([1]; glutaric acid, absorptivity at 550 nm) [%] | color change upon complexation ([1]; two equivalents of glutaric acid) | spectral change relative to the other dicarboxylic acids [2] | Binding Constant (Ka) UV-vis [2, 8] [M⁻¹] | % Increase ( = 550 nm) ([2]; absorptivity at 550 nm) [%] | air stability (air stability) | Binding Constant (Ka) NMR [3] [M⁻¹] | positive cooperativity in binding of second equivalent of dicarboxylic acid [4] | color change on binding ([4]; each dicarboxylic acid of Table 1) | spectral change relative to the other dicarboxylic acids [5] | Binding Constant (Ka) UV-vis [5, 8] [M⁻¹] | % Increase ( = 550 nm) ([5]; absorptivity at 550 nm) [%] | Binding Constant (Ka) UV-vis ([6]; CHCl3, UV-vis ΔA550, several diastereomeric complexes, all Ka assumed equal) [M⁻¹] | % Increase ( = 550 nm) ([6]; absorptivity at 550 nm) [%] | Binding Constant (Ka) NMR [7] [M⁻¹] | receptor strength for dicarboxylic acids ([4]; uncoordinated ligand) | association constant ([7]; uncoordinated receptor, chloroform) [M⁻¹]
1 | Cc1cccc(NC(=O)c2ccc(-c3ccc4ccc5ccc(-c6ccc(C(=O)Nc7cccc(C)n7)cc6)nc5c4n3)cc2)n1.Cc1cccc(NC(=O)c2ccc(-c3ccc4ccc5ccc(-c6ccc(C(=O)Nc7cccc(C)n7)cc6)nc5c4n3)cc2)n1.F[B-](F)(F)F.[Cu+] [Cu(1)2^+ BF4^-] | 78000 | 3-4 times | 101 | obvious color change from pale orange to bright red | largest change | 35000 | 111 | air stable | 40000 | not observed | distinct color change from pale orange to bright red | smallest changes in the spectrum | 17000 | 62 | 40000 | 105 | 71000 | – | –
2 | Cc1cccc(NC(=O)c2ccc(-c3ccc4ccc5ccc(-c6ccc(C(=O)Nc7cccc(C)n7)cc6)nc5c4n3)cc2)n1 [Receptor 1] | – | – | – | – | – | – | – | – | – | – | – | – | – | – | – | – | – | good receptor for dicarboxylic acids | 36000

— US5998594A, “Self-assembling, chromogenic receptors for the recognition of medically important substrates and their method of use” (University of Pittsburgh of the Commonwealth System of …, priority 1994, dated 1999)
